Measurements published in US20170226145A1, “METHODS OF EXTRACTION AND PURIFICATION FROM STEVIA REBAUDIANA OF COMPOSITIONS WITH ENHANCED REBAUDIOSIDE-M CONTENT, USES OF SAID COMPOSITION AND NATURAL SWEETENER COMPOSITIONS WITH SAID COMPOSITION” (GLG LIFE TECH CORPORATION, priority 2014, published 2017).
Each block holds one compound with its values, some of them ahead of it.

How the values were obtained:
[1] = Solubility in water and solvents; type: physicochemical
[2] = Sweetness relative to sucrose (general statements, Table 1)
Description: The physical and sensory properties are well studied generally only for Stevioside (STV) and Rebaudioside A. The sweetness potency of Stevioside is around 210 times higher than sucrose, Rebaudioside A is between 200 and 400 times, and Rebaudioside C is between 40 and 50 times and Dulcoside A around 30 times. Traditionally, Rebaudioside A is considered to have the most favorable sensory attributes of the four major steviol glycosides (see Table 1): […]

Heat and pH stability = type: physicochemical; settings: RM obtained in accordance with the invention
[3] = glycosides of wild type stevia; cited from earlier work
[4] = Example 8 sample test results of sweetener solutions (Table 2)
Description: Reb M 95, Reb C 85, Reb D 95, Reb A 97, Sucrose, New Blends RA97 and RM95, New Blends RA97, RM95 and RC85, New Blends RM95, RA97 and Sucrose, New Blends RM95, RA97 and Erythritol, Purified Water. [table]

- solubility in acetone, benzene, chloroform, and ether [1]: insoluble
- solubility in diluted solutions of methanol, ethanol, n-propanol, and isopropanol [1]: soluble
- solubility of RM in water ([1]; increases with an increase in temperature): around 0.3%
- heat and pH stability (Heat and pH stability): heat and pH-stable
Compound: C=C1C[C@@]23CC[C@H]4[C@@](C)(CCC[C@@]4(C)C(=O)O[C@@H]4O[C@H](CO)[C@@H](O)[C@H](O[C@@H]5O[C@H](CO)[C@@H](O)[C@H](O)[C@H]5O)[C@H]4O[C@@H]4O[C@H](CO)[C@@H](O)[C@H](O)[C@H]4O)[C@@H]2CC[C@]1(O[C@@H]1O[C@H](CO)[C@@H](O)[C@H](O[C@@H]2O[C@H](CO)[C@@H](O)[C@H](O)[C@H]2O)[C@H]1O[C@@H]1O[C@H](CO)[C@@H](O)[C@H](O)[C@H]1O)C3 [RM, Rebaudioside M]
- times sweeter than sugar ([2]; compared to a 10% sucrose solution): about 200 times
- times sweetness of sucrose ([2]; purified Reb M of the invention): more than 300 times

Compound: C=C1C[C@@]23CC[C@H]4[C@@](C)(CCC[C@@]4(C)C(=O)O[C@@H]4O[C@H](CO)[C@@H](O)[C@H](O)[C@H]4O)[C@@H]2CC[C@]1(O[C@@H]1O[C@H](CO)[C@@H](O)[C@H](O[C@@H]2O[C@H](CO)[C@@H](O)[C@H](O)[C@H]2O)[C@H]1O[C@@H]1O[C@H](CO)[C@@H](O)[C@H](O)[C@H]1O)C3 [Rebaudioside A]
- sweetness, × of sugar [3]: 350-450 × of sugar

Compound: C=C1C[C@@]23CC[C@H]4[C@@](C)(CCC[C@@]4(C)C(=O)O[C@@H]4O[C@H](CO)[C@@H](O)[C@H](O)[C@H]4O)[C@@H]2CC[C@]1(O[C@@H]1O[C@H](CO)[C@@H](O)[C@H](O)[C@H]1O[C@@H]1O[C@H](CO)[C@@H](O)[C@H](O)[C@H]1O)C3 [Stevioside]
- sweetness, × of sugar [3]: 250-300 × of sugar

Compound: OC[C@H]1O[C@@](CO)(O[C@H]2O[C@H](CO)[C@@H](O)[C@H](O)[C@H]2O)[C@@H](O)[C@@H]1O [Sucrose]
- Content/100 ml ([4]; amount per 100 ml in the solution that has sweetness 9° (9 g sucrose)): 9 g
- Sweetness of Solution ([4]; solution at the Content/100 ml of Table 2): 9°

Compound: Rebaudioside C
- sweetness, × of sugar [3]: 40-50 × of sugar
